Results: PubChem BioAssay AID192 (DTP/NCI, 2004)
“And” between values parts separate entries of the source, which are not always exact repeats. Identical values can stand only once. Toxic doses and inconclusive results are not listed. Square brackets hold non-standard residues; d marks the D form. Peptide text beside a SMILES is read from it. * marks the point of attachment. ξ: configuration not given here. Cbz = O=C(OCc1ccccc1)*; ξK = NCCCCC(N)C(=O)O

Tested on: BDF1 mice, B16 melanoma ip, median survival T/C
Assay: NCI In Vivo Anticancer Drug Screen. Data for tumor model B16 Melanoma (intraperitoneal) in B6D2F1 (BDF1) mice
Conditions: endpoint: median survival time, higher = longer survival
In short: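 Compounds were tested in mice carrying transplantable tumors. Survival or tumor size was recorded, and each value is the treated-group measurement (T) divided by that of the vehicle-treated control group (C).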

[1] = dose: 100.0 mg/kg/injection, schedule: Q01DX009 (ip), vehicle: saline with Tween-80
[2] = dose: 12.5 mg/kg/injection, schedule: Q01DX009 (ip), vehicle: Klucel (hydroxypropylcellulose) (HPC)
[3] = dose: 25.0 mg/kg/injection, schedule: Q01DX009 (ip), vehicle: Klucel (hydroxypropylcellulose) (HPC)
[4] = dose: 50.0 mg/kg/injection, schedule: Q01DX009 (ip), vehicle: Klucel (hydroxypropylcellulose) (HPC)
[5] = dose: 100.0 mg/kg/injection, schedule: Q01DX009 (ip), vehicle: Klucel (hydroxypropylcellulose) (HPC)
[6] = dose: 6.25 mg/kg/injection, schedule: Q01DX009 (ip), vehicle: saline with Tween-80
[7] = dose: 50.0 mg/kg/injection, schedule: Q01DX009 (ip), vehicle: saline with Tween-80
[8] = dose: 6.25 mg/kg/injection, schedule: Q01DX009 (ip), vehicle: Klucel (hydroxypropylcellulose) (HPC)
[9] = dose: 100.0 mg/kg/injection, schedule: Q01DX009 (ip), vehicle: saline
[10] = dose: 200.0 mg/kg/injection, schedule: Q01DX009 (ip), vehicle: saline
[11] = dose: 400.0 mg/kg/injection, schedule: Q01DX009 (ip), vehicle: saline

CCOC(=O)C(=CN1CCOCC1)C(=O)OCC
T/C [1]: 90 % of control
T/C (dose: 100.0 mg/kg/injection, schedule: Q04DX003 (ip), vehicle: saline with Tween-80): 100 % of control
T/C (dose: 200.0 mg/kg/injection, schedule: Q01DX009 (ip), vehicle: saline with Tween-80): 98 % of control
T/C (dose: 200.0 mg/kg/injection, schedule: Q04DX003 (ip), vehicle: saline with Tween-80): 102 % of control
T/C (dose: 400.0 mg/kg/injection, schedule: Q01DX009 (ip), vehicle: saline with Tween-80): 98 % of control
T/C (dose: 400.0 mg/kg/injection, schedule: Q04DX003 (ip), vehicle: saline with Tween-80): 109 % of control

CC(=O)Nc1ccc(NC(=O)c2ccc([As](O)O)cc2)cc1
T/C [2]: 104 % of control
T/C [3]: 105 % of control
T/C [4]: 91 % of control
T/C [5]: 105 % of control

N=C(N)SCc1c2ccccc2c(CSC(=N)N)c2ccccc12
T/C (dose: 12.5 mg/kg/injection, schedule: Q01DX009 (ip), vehicle: saline): 238 % of control
T/C (dose: 25.0 mg/kg/injection, schedule: Q01DX009 (ip), vehicle: saline): 285 % of control

CCOC(=O)CCCc1ccc(N=NN(C)C)cc1
T/C (dose: 1.56 mg/kg/injection, schedule: Q01DX009 (ip), vehicle: saline with Tween-80): 102 % of control
T/C (dose: 3.13 mg/kg/injection, schedule: Q01DX009 (ip), vehicle: saline with Tween-80): 105 % of control
T/C [6]: 100 % of control

CS(=O)(=O)Nc1ccc(Nc2c3ccccc3nc3cc([N+](=O)[O-])ccc23)cc1
T/C (dose: 0.6 mg/kg/injection, schedule: Q01DX009 (ip), vehicle: saline sonified): 112 % of control
T/C (dose: 2.5 mg/kg/injection, schedule: Q01DX009 (ip), vehicle: saline sonified): 154 % of control
T/C (dose: 50.0 mg/kg/injection, schedule: Q01DX001 (ip), vehicle: saline sonified): 158 % of control

O=C(NC(Cc1ccccc1)C(=O)NC(Cc1ccc(O)cc1)C(=O)O)OCc1ccccc1 (stereo not drawn) (Cbz-Phe-Tyr-OH; configuration not given here)
T/C [7]: 105 % of control
T/C [1]: 86 % of control

CC(C)CC(NC(=O)C(N)C(C)C)C(=O)NC(CCCCN)C(=O)Nc1ccc(N(CCCl)CCCl)cc1 (configuration not stated)
T/C (dose: 0.74 mg/kg/injection, schedule: Q01DX009 (ip), vehicle: saline): 105 % of control
T/C (dose: 1.49 mg/kg/injection, schedule: Q01DX009 (ip), vehicle: saline): 109 % of control and 120 % of control
T/C (dose: 5.95 mg/kg/injection, schedule: Q01DX009 (ip), vehicle: saline): 159 % of control and 182 % of control

CCC[CH2][Sn]1([CH2]CCC)[O]C2C(CO)OC(n3ccc(N)nc3=O)C2[O]1 (configuration not stated)
T/C (dose: 0.78 mg/kg/injection, schedule: Q01DX009 (ip), vehicle: Klucel (hydroxypropylcellulose) (HPC)): 99 % of control
T/C (dose: 1.56 mg/kg/injection, schedule: Q01DX009 (ip), vehicle: Klucel (hydroxypropylcellulose) (HPC)): 123 % of control
T/C (dose: 3.12 mg/kg/injection, schedule: Q01DX009 (ip), vehicle: Klucel (hydroxypropylcellulose) (HPC)): 116 % of control
T/C [8]: 104 % of control and 124 % of control

O=C(O)O
T/C [9]: 102 % of control
T/C [10]: 97 % of control
T/C [11]: 94 % of control

CCOC(=O)N(C)C
T/C [9]: 93 % of control
T/C [10]: 98 % of control
T/C [11]: 94 % of control

CCN(CC)CCSC(=S)N1c2ccccc2Sc2ccccc21
T/C (dose: 1.09 mg/kg/injection, schedule: Q01DX009 (ip), vehicle: Klucel (hydroxypropylcellulose) (HPC)): 109 % of control
T/C (dose: 2.18 mg/kg/injection, schedule: Q01DX009 (ip), vehicle: Klucel (hydroxypropylcellulose) (HPC)): 105 % of control
T/C (dose: 4.37 mg/kg/injection, schedule: Q01DX009 (ip), vehicle: Klucel (hydroxypropylcellulose) (HPC)): 107 % of control
T/C (dose: 8.75 mg/kg/injection, schedule: Q01DX009 (ip), vehicle: Klucel (hydroxypropylcellulose) (HPC)): 111 % of control
T/C (dose: 17.5 mg/kg/injection, schedule: Q01DX009 (ip), vehicle: Klucel (hydroxypropylcellulose) (HPC)): 100 % of control

O=C(NN=C1CCCCC1)c1ccccc1
T/C (dose: 18.75 mg/kg/injection, schedule: Q01DX009 (ip), vehicle: saline with Tween-80): 97 % of control
T/C (dose: 37.5 mg/kg/injection, schedule: Q01DX009 (ip), vehicle: saline with Tween-80): 100 % of control
T/C (dose: 75.0 mg/kg/injection, schedule: Q01DX009 (ip), vehicle: saline with Tween-80): 105 % of control and 107 % of control

CCCCCCCCCCCCCCCCCCNC(=O)Nc1ccccc1CC
T/C [7]: 86 % of control

O=C1C(Cl)=C(c2ccccc2)C(=O)C(Cl)=C1c1ccccc1
T/C [8]: 114 % of control
T/C [2]: 106 % of control
T/C [3]: 87 % of control
T/C [4]: 94 % of control

COc1ccc(Cl)[n+]([O-])n1
T/C (dose: 3.13 mg/kg/injection, schedule: Q01DX009 (ip), vehicle: Klucel (hydroxypropylcellulose) (HPC)): 92 % of control
T/C [8]: 95 % of control
T/C [2]: 98 % of control
T/C [3]: 96 % of control
T/C [4]: 98 % of control
T/C [5]: 91 % of control

C/C=C(\C)C(=O)O[C@@H]1c2cc3c(cc2-c2c(cc(OC)c(OC)c2OC)[C@@H]2C(=O)OC[C@@H]12)OCO3
T/C (dose: 1.25 mg/kg/injection, schedule: Q01DX009 (ip), vehicle: Klucel (hydroxypropylcellulose) (HPC)): 101 % of control
T/C (dose: 2.5 mg/kg/injection, schedule: Q01DX009 (ip), vehicle: Klucel (hydroxypropylcellulose) (HPC)): 107 % of control
T/C (dose: 5.0 mg/kg/injection, schedule: Q01DX009 (ip), vehicle: Klucel (hydroxypropylcellulose) (HPC)): 92 % of control
T/C (dose: 10.0 mg/kg/injection, schedule: Q01DX009 (ip), vehicle: Klucel (hydroxypropylcellulose) (HPC)): 96 % of control

Nc1nc(SCc2ccccc2)c2ncn(C3CC(O)C(CO)O3)c2n1 (configuration not stated)
T/C (dose: 4.25 mg/kg/injection, schedule: Q01DX009 (ip), vehicle: saline): 111 % of control
T/C (dose: 8.5 mg/kg/injection, schedule: Q01DX009 (ip), vehicle: saline): 113 % of control
T/C (dose: 17.0 mg/kg/injection, schedule: Q01DX009 (ip), vehicle: saline): 94 % of control
T/C (dose: 34.0 mg/kg/injection, schedule: Q01DX009 (ip), vehicle: saline): 93 % of control

NCC(=O)NC(CCCCNC(=O)OCc1ccccc1)C(=O)O (configuration not stated) (H-Gly-[ξK](Cbz)-OH)
T/C (dose: 3.12 mg/kg/injection, schedule: Q01DX009 (ip), vehicle: saline with Tween-80): 97 % of control
T/C [6]: 101 % of control

Cc1nn(-c2ccccc2)c(N)c1C#N
T/C [3]: 100 % of control
T/C [4]: 93 % of control
T/C [5]: 103 % of control

CCOC(=O)c1c(N)[nH]c(SSc2[nH]c(N)c(C(=O)OCC)c2C(=O)OCC)c1C(=O)OCC
T/C (dose: 75.0 mg/kg/injection, schedule: Q01DX009 (ip), vehicle: saline): 89 % of control
T/C (dose: 300.0 mg/kg/injection, schedule: Q01DX009 (ip), vehicle: saline): 97 % of control

O=CN(O)CC(=O)O
T/C (dose: 100.0 mg/kg/injection, schedule: Q04DX003 (ip), vehicle: saline): 97 % of control
T/C (dose: 200.0 mg/kg/injection, schedule: Q04DX003 (ip), vehicle: saline): 100 % of control
T/C (dose: 400.0 mg/kg/injection, schedule: Q04DX003 (ip), vehicle: saline): 100 % of control

Oc1c(CN2CCCC2)cc(Nc2cc(/C=C/c3ccc(Cl)cc3)nc(/C=C\c3ccc(Cl)cc3)n2)cc1CN1CCCC1
T/C (dose: 3.0 mg/kg/injection, schedule: Q04DX003 (ip), vehicle: Klucel (hydroxypropylcellulose) (HPC)): 105 % of control
T/C (dose: 6.0 mg/kg/injection, schedule: Q04DX003 (ip), vehicle: Klucel (hydroxypropylcellulose) (HPC)): 97 % of control
T/C (dose: 12.0 mg/kg/injection, schedule: Q04DX003 (ip), vehicle: Klucel (hydroxypropylcellulose) (HPC)): 89 % of control

Clc1nnc(Cl)c(Cl)c1Cl
T/C (dose: 0.05 mg/kg/injection, schedule: Q01DX009 (ip), vehicle: saline with Tween-80): 109 % of control
T/C (dose: 0.05 mg/kg/injection, schedule: Q04DX003 (ip), vehicle: saline): 102 % of control
T/C (dose: 0.1 mg/kg/injection, schedule: Q01DX009 (ip), vehicle: saline with Tween-80): 100 % of control
T/C (dose: 0.1 mg/kg/injection, schedule: Q04DX003 (ip), vehicle: saline): 91 % of control
T/C (dose: 0.2 mg/kg/injection, schedule: Q01DX009 (ip), vehicle: saline with Tween-80): 100 % of control
T/C (dose: 0.2 mg/kg/injection, schedule: Q04DX003 (ip), vehicle: saline): 89 % of control

CC(=O)Oc1ccccc1O
T/C (dose: 25.0 mg/kg/injection, schedule: Q01DX009 (ip), vehicle: saline + Tween-80 + alcohol): 100 % of control
T/C (dose: 50.0 mg/kg/injection, schedule: Q01DX009 (ip), vehicle: saline + Tween-80 + alcohol): 109 % of control
T/C (dose: 100.0 mg/kg/injection, schedule: Q01DX009 (ip), vehicle: saline + Tween-80 + alcohol): 104 % of control
